Data from patent US9060515B2, “Heterocyclic urea compounds” (BIOTA EUROPE LTD, priority 2011, dated 2015).
Converted amounts (≈) assume the structure as drawn.

How the values were obtained:
Assay type in all cases: cell-based
[1] = test system: H. influenzae (ATCC 49247); test: Antibacterial susceptibility testing (MIC, broth microdilution or agar dilution), H. influenzae; conditions: Haemophilus influenzae, ATCC49247; read-out: H. influenzae (ATCC 49247) minimal inhibitory concentration (MIC)
Method: (§1) Compounds of the invention were tested for antimicrobial activity by susceptibility testing in liquid or on solid media. MICs for compounds against each strain were determined by the broth microdilution or agar dilution method according to the guidelines of the Clinical Laboratories and Standards Institute, formerly the National Committee for Clinical Laboratory Standards (Clinical Laboratories and Standards Institute. Methods for Dilution Antimicrobial Susceptibility Tests for Bacteria That Grow Aerobically; Approved Standard—Seventh Edition. Document M7-A7. CLSI, Wayne, Pa., 2006; Clinical Laboratories and Standards Institute. The Gram positive bacterial strains tested include S. aureus (Staphylococcus aureus (Isolate ID ATCC 29213)), E. faecalis (Enterococcus faecalis (Isolate ID ATCC 29212)) and S. pyogenes (Streptococcus pyogenes (Isolate ID ATCC 51339)). The Gram negative bacterial strains tested include H. influenzae (Haemophilus influenzae (Isolate ID ATCC 49247)).

S. aureus (ATCC 29213) = test: Antibacterial susceptibility testing (MIC, broth microdilution or agar dilution), S. aureus; conditions: Staphylococcus aureus, ATCC29213; read-out: S. aureus (ATCC 29213) minimal inhibitory concentration (MIC)
Outline: (§2)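 MICs by CLSI (M7-A7) broth microdilution or agar dilution, against reference ATCC strains as listed.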

S. pyogenes (ATCC 51339) = test: Antibacterial susceptibility testing (MIC, broth microdilution or agar dilution), S. pyogenes; conditions: Streptococcus pyogenes, ATCC51339; read-out: S. pyogenes (ATCC 51339) minimal inhibitory concentration (MIC)
Outline: as §2

E. faecalis (ATCC 29212) = test: Antibacterial susceptibility testing (MIC, broth microdilution or agar dilution), E. faecalis; conditions: Enterococcus faecalis, ATCC29212; read-out: E. faecalis (ATCC 29212) minimal inhibitory concentration (MIC)
Method: as §1

MIC [1] [µg/mL]	MIC (S. aureus (ATCC 29213)) [µg/mL]	MIC (S. pyogenes (ATCC 51339)) [µg/mL]	MIC (E. faecalis (ATCC 29212)) [µg/mL]	Compound
4 (≈ 8.07 µM)	≤ 1			CCNC(=O)Nc1cc(Nc2ccc(Cl)cc2)c(C(=O)Nc2ccc(CCC(=O)OC)cc2)cn1 [Compound 148, methyl 3-{4-[({4-[(4-chlorophenyl)amino]-6-[(ethylcarbamoyl)amino]pyridin-3-yl}carbonyl)amino]phenyl}propanoate]
2 (≈ 4.05 µM)	≤ 1			CCNC(=O)Nc1cc(Nc2ccc(Cl)cc2)c(C(=O)Nc2ccc([C@@H]3C[C@H]3C(=O)O)cc2)cn1 [Compound 192, (1R,2R)-2-{4-[({4-[(4-chlorophenyl)amino]-6-[(ethylcarbamoyl)amino]pyridin-3-yl}carbonyl)amino]phenyl}cyclopropanecarboxylic acid]
2 (≈ 3.82 µM)	≤ 1			CCNC(=O)Nc1cc(Nc2ccc(OC)c(F)c2)c(C(=O)Nc2ccc(CC(C)(C)C(=O)O)cc2)cn1 [Compound 190, 3-{4-[({6-[(ethylcarbamoyl)amino]-4-[(3-fluoro-4-methoxyphenyl)amino]pyridin-3-yl}carbonyl)amino]phenyl}-2,2-dimethylpropanoic acid]
8 (≈ 17.3 µM)	≤ 1			CCNC(=O)Nc1cc(Nc2ccccc2)c(C(=O)Nc2ccc(CCC(=O)OC)nc2)cn1 [Compound 179, methyl 3-{5-[({6-[(ethylcarbamoyl)amino]-4-(phenylamino)pyridin-3-yl}carbonyl)amino]pyridin-2-yl}propanoate]
4 (≈ 8.3 µM)	≤ 1			CCNC(=O)Nc1cc(Nc2ccc(Cl)cc2)c(C(=O)Nc2ccc(CCC(=O)O)cc2)cn1 [Compound 149, 3-{4-[({4-[(4-chlorophenyl)amino]-6-[(ethylcarbamoyl)amino]pyridin-3-yl}carbonyl)amino]phenyl}propanoic acid]
2 (≈ 4.35 µM)	2 (≈ 4.35 µM)			CCNC(=O)Nc1cc(Nc2ccccc2)c(C(=O)Nc2ccc([C@@H]3C[C@H]3C(=O)O)cc2)cn1 [Compound 169]
8 (≈ 15.9 µM)	2 (≈ 3.96 µM)			CCNC(=O)Nc1cc(Nc2ccccc2)c(C(=O)Nc2cnc(NCC3(C(=O)O)CCC3)nc2)cn1 [Compound 168, 1-[({5-[({6-[(ethylcarbamoyl)amino]-4-(phenylamino)pyridin-3-yl}carbonyl)amino]pyrimidin-2-yl}amino)methyl] cyclobutanecarboxylic acid]
	≤ 1	4 (≈ 9.76 µM)	≤ 1	CCNC(=O)Nc1cc(Nc2ccccc2)c(C(=O)Nc2cccc(Cl)c2)cn1 [Compound 4]
	2 (≈ 4.61 µM)	≤ 1	≤ 1	CCNC(=O)Nc1cc(Nc2ccccc2)c(C(=O)Nc2ccc(NC(C)=O)nc2)cn1 [Compound 24, N-(6-acetamidopyridin-3-yl)-6-(3-ethylureido)-4-(phenylamino)nicotinamide]
8 (≈ 19.6 µM)	≤ 1			CCNC(=O)Nc1cc(Nc2ccnc(OC)c2)c(C(=O)Nc2cccnc2)cn1 [Compound 163]
4 (≈ 8.1 µM)	≤ 1			CCNC(=O)Nc1cc(Nc2ccc(F)cc2)c(C(=O)Nc2ccc(CC(C)(C)C(=O)O)cc2)cn1 [Compound 175, 3-{4-[({6-[(ethylcarbamoyl)amino]-4-[(4-fluorophenyl)amino]pyridin-3-yl}carbonyl)amino]phenyl}-2,2-dimethylpropanoic acid]
8 (≈ 17.8 µM)	16 (≈ 35.7 µM)			CCNC(=O)Nc1cc(Nc2ccccc2)c(C(=O)Nc2ccc(CCC(=O)O)nc2)cn1 [Compound 166, 3-{5-[({6-[(ethylcarbamoyl)amino]-4-(phenylamino)pyridin-3-yl}carbonyl)amino]pyridin-2-yl}propanoic acid]
	≤ 1	≤ 1	≤ 1	CCNC(=O)Nc1cc(Nc2cccnc2)c(C(=O)Nc2ccccc2)cn1 [Compound 13, 6-(3-ethylureido)-N-phenyl-4-(pyridin-3-ylamino)nicotinamide]
4 (≈ 7.91 µM)	≤ 1			CCNC(=O)Nc1cc(Nc2cccc(OC)c2)c(C(=O)Nc2ccc(CC(C)(C)C(=O)O)cc2)cn1 [Compound 178, 3-{4-[({6-[(ethylcarbamoyl)amino]-4-[(3-methoxyphenyl)amino]pyridin-3-yl}carbonyl)amino]phenyl}-2,2-dimethylpropanoic acid]
2 (≈ 4.1 µM)				CCNC(=O)Nc1cc(Nc2ccccc2)c(C(=O)Nc2ccc([C@@H]3C[C@H]3C(=O)OCC)cc2)cn1 [Compound 180]
	2 (≈ 4.33 µM)	≤ 1	≤ 1	CCNC(=O)Nc1cc(Nc2ccccc2)c(C(=O)Nc2ccc(N3CCOCC3)nc2)cn1 [Compound 23, 6-(3-ethylureido)-N-(6-morpholinopyridin-3-yl)-4-(phenylamino)nicotinamide]
4 (≈ 7.64 µM)	≤ 1			CCNC(=O)Nc1cc(Nc2ccc(F)c(OC)c2)c(C(=O)Nc2ccc(CC(C)(C)C(=O)O)cc2)cn1 [Compound 184, 3-{4-[({6-[(ethylcarbamoyl)amino]-4-[(4-fluoro-3-methoxyphenyl)amino]pyridin-3-yl}carbonyl)amino]phenyl}-2,2-dimethylpropanoic acid]
4 (≈ 8.1 µM)	≤ 1			CCNC(=O)Nc1cc(Nc2ccccc2F)c(C(=O)Nc2ccc(CC(C)(C)C(=O)O)cc2)cn1 [Compound 182, 3-{4-[({6-[(ethylcarbamoyl)amino]-4-[(2-fluorophenyl)amino]pyridin-3-yl}carbonyl)amino]phenyl}-2,2-dimethylpropanoic acid]
4 (≈ 7.84 µM)	≤ 1			CCNC(=O)Nc1cc(Nc2cccc(Cl)c2)c(C(=O)Nc2ccc(CC(C)(C)C(=O)O)cc2)cn1 [Compound 177, 3-{4-[({4-[(3-chlorophenyl)amino]-6-[(ethylcarbamoyl)amino]pyridin-3-yl}carbonyl)amino]phenyl}-2,2-dimethylpropanoic acid]
8 (≈ 19.7 µM)	4 (≈ 9.84 µM)			CCNC(=O)Nc1cc(Nc2ccccc2)c(C(=O)Nc2ccn(C)c(=O)c2)cn1 [Compound 134, 6-[(Ethylcarbamoyl)amino]-N-(1-methyl-2-oxo-1,2-dihydropyridin-4-yl)-4-(phenylamino)pyridine-3-carboxamide]
	≤ 1	2 (≈ 5.33 µM)	≤ 1	CCNC(=O)Nc1cc(Nc2ccccc2)c(C(=O)Nc2ccccc2)cn1 [Compound 17, 6-(3-ethylureido)-N-phenyl-4-(phenylamino)nicotinamide]
	≤ 1	2 (≈ 5.14 µM)	≤ 1	CCNC(=O)Nc1cc(Nc2ccccc2)c(C(=O)Nc2cccc(C)c2)cn1 [Compound 18, 6-(3-ethylureido)-4-(phenylamino)-N-m-tolylnicotinamide]
4 (≈ 8.98 µM)	2 (≈ 4.49 µM)			CCNC(=O)Nc1cc(Nc2ccccc2)c(C(=O)Nc2ccc(/C=C/C(=O)O)cc2)cn1 [Compound 137, (2E)-3-{4-[({6-[(ethylcarbamoyl)amino]-4-(phenylamino)pyridin-3-yl}carbonyl)amino]phenyl}prop-2-enoic acid]
8 (≈ 15.7 µM)	≤ 1			CCNC(=O)Nc1cc(Nc2ccc(Cl)cc2)c(C(=O)Nc2ccc(CC(C)(C)C(=O)O)cc2)cn1 [Compound 160, 3-{4-[({4-[(4-chlorophenyl)amino]-6-[(ethylcarbamoyl)amino]pyridin-3-yl}carbonyl)amino]phenyl}-2,2-dimethylpropanoic acid]
	8 (≈ 21.2 µM)	≤ 1	≤ 1	CCNC(=O)Nc1cc(Nc2cccnc2)c(C(=O)Nc2cccnc2)cn1 [Compound 19, 6-(3-ethylureido)-N-(pyridin-3-yl)-4-(pyridin-3-ylamino)nicotinamide]
